Experimental data as given in ChEMBL document CHEMBL5356966, “A dual mechanism with H2S inhibition and membrane damage of morusin from Morus alba Linn. against MDR-MRSA” (2024).
Values after ≈ are worked out from the molar mass of the structure shown. Active and inactive are the calls of the source. The calls are words filed in the database; no cut-off is given here.

Columns and labels:
[1] = system: Enterococcus; assay: Antibacterial activity vancomycin-resistant Enterococcus assessed as inhibition of bacterial growth incubated for 24 hrs by CLSI based analysis; assay type: functional
[2] = system: Staphylococcus aureus; assay: Antibacterial activity methicillin-resistant Staphylococcus aureus 003 assessed as inhibition of bacterial growth incubated for 24 hrs by CLSI based analysis; assay type: functional
[3] = system: Staphylococcus aureus; assay: Antibacterial activity Staphylococcus aureus assessed as inhibition of bacterial growth incubated for 24 hrs by CLSI based analysis; assay type: functional
[4] = system: Cell membrane; assay: Disruption of bacterial cell membrane in methicilin-resistant Staphylococcus aureus 003 assessed as increase in green fluorescence intensity incubated for 1 hr by DAPI/PI staning based confocal laser microscopic analysis
[5] = system: Staphylococcus aureus; assay: Antibacterial activity methicillin-resistant Staphylococcus aureus 011 assessed as inhibition of bacterial growth incubated for 24 hrs by CLSI based analysis; assay type: functional
[6] = system: Cell membrane; assay: Induction of inner membrane permeability in methicillin-resistant Staphylococcus aureus 003 assessed as fold change in MIC in presence of phosphatidylglycerol; assay type: subcellular
[7] = system: Staphylococcus aureus; assay: Antibacterial activity methicillin-resistant Staphylococcus aureus 003 assessed as downregulation of fabF expression by qRT-PCR analysis; assay type: functional, organism-based
[8] = system: Staphylococcus aureus; assay: Bactericidal activity methicillin-resistant Staphylococcus aureus 003 assessed as inhibition of bacterial growth incubated for 24 hrs by CLSI based analysis; assay type: functional
[9] = system: Staphylococcus aureus; assay: In vivo antibacterial activity against methicilin-resistant Staphylococcus aureus infected in ICR mouse skin infection model assessed as reduction in bacterial burden at 5 mg/kg, ip preadministered with compound for 24 hrs followed by bacterial infection and measured after 3 days; assay type: functional; set-up: scale not given: the % may be the effect or the level left; conditions: time 96 hrs
[10] = system: Staphylococcus aureus; assay: Bactericidal activity against Staphylococcus aureus at 2 to 4 times MIC measured after 24 hrs by time kill assay; assay type: functional, organism-based
[11] = system: Cell membrane; assay: Induction of inner membrane permeability in Escherichia coli assessed as increase in fluorescence intensity measured for 15 mins in presence of Polymyxin B sulfate
[12] = system: Staphylococcus aureus; assay: In vivo antibacterial activity against methicilin-resistant Staphylococcus aureus infected in ICR mouse skin infection model assessed as wound area at 10 mg/kg, ip preadministered with compound for 24 hrs followed by bacterial infection and measured after 3 days; assay type: functional; conditions: time 96 hrs
[13] = system: Cell membrane; assay: Induction of inner membrane permeability in methicillin-resistant Staphylococcus aureus 003 assessed as fold change in MIC in presence of peptidoglycan; assay type: subcellular
[14] = system: Cell membrane; assay: Induction of inner membrane permeability in vancomycin-resistant Enterococcus assessed as increase in fluorescence intensity incubated for 30 mins
[15] = system: Cell membrane; assay: Induction of inner membrane permeability in methicillin-resistant Staphylococcus aureus 003 assessed as fold change in MIC in presence of phosphatidylethanolamine; assay type: subcellular
[16] = system: Staphylococcus aureus; assay: Induction of resistance development in methicilin-resistant Staphylococcus aureus incubated for 24 hrs treated over 20 serial passages by broth microdilution analysis; assay type: functional, organism-based
[17] = system: Staphylococcus aureus; assay: Bactericidal activity against methicilin-resistant Staphylococcus aureus 003 at 8 times MIC measured after 24 hrs by time kill assay; assay type: functional, organism-based
[18] = system: Staphylococcus aureus; assay: Antibacterial activity methicillin-resistant Staphylococcus aureus 003 assessed as decrease in intracellular pH at 4 time MIC measured up to 74 mins; assay type: functional, organism-based
[19] = system: Staphylococcus aureus; assay: In vivo antibacterial activity against methicilin-resistant Staphylococcus aureus infected in ICR mouse skin infection model assessed as wound area at 5 mg/kg, ip preadministered with compound for 24 hrs followed by bacterial infection and measured after 3 days; assay type: functional; conditions: time 96 hrs
[20] = system: Cell membrane; assay: Disruption of bacterial cell membrane in methicilin-resistant Staphylococcus aureus 003 assessed as as appearance of wrinkled cell incubated for 1 hr by DAPI/PI staning based confocal laser microscopic analysis; assay type: subcellular
[21] = system: Staphylococcus aureus; assay: Antibacterial activity methicillin-resistant Staphylococcus aureus 003 assessed as increase in fluorescence intensity at 1 time MIC; assay type: functional
[22] = system: Staphylococcus aureus; assay: Bactericidal activity methicillin-resistant Staphylococcus aureus 011 assessed as inhibition of bacterial growth incubated for 24 hrs by CLSI based analysis; assay type: functional
[23] = system: Staphylococcus aureus; assay: In vivo antibacterial activity against methicilin-resistant Staphylococcus aureus infected in ICR mouse skin infection model assessed as wound area at 20 mg/kg, ip preadministered with compound for 24 hrs followed by bacterial infection and measured after 3 days; assay type: functional; conditions: time 96 hrs
[24] = system: Staphylococcus aureus; assay: Antibacterial activity methicillin-resistant Staphylococcus aureus 003 assessed as inhibition of H2S production at 1/4 times MIC; assay type: functional
[25] = system: Cell membrane; assay: Induction of inner membrane permeability in methicillin-resistant Staphylococcus aureus 003 assessed as fold change in MIC in presence of cardiolipin; assay type: subcellular
[26] = system: Staphylococcus aureus; assay: In vivo antibacterial activity against methicilin-resistant Staphylococcus aureus infected in ICR mouse skin infection model assessed as reduction in bacterial burden at 10 mg/kg, ip preadministered with compound for 24 hrs followed by bacterial infection and measured after 3 days; assay type: functional; set-up: scale not given: the % may be the effect or the level left; conditions: time 96 hrs
[27] = system: Staphylococcus aureus; assay: Antibacterial activity methicillin-resistant Staphylococcus aureus 003 assessed as downregulation of plsY expression by qRT-PCR analysis; assay type: functional, organism-based
[28] = system: Acinetobacter baumannii; assay: Antibacterial activity Acinetobacter baumannii assessed as inhibition of bacterial growth incubated for 24 hrs by CLSI based analysis; assay type: functional
[29] = system: Staphylococcus aureus; assay: Induction of resistance development in Staphylococcus aureus incubated for 24 hrs treated over 20 serial passages by broth microdilution analysis; assay type: functional, organism-based
[30] = system: Staphylococcus aureus; assay: Bactericidal activity against Staphylococcus aureus at 2 to 4 times MIC measured after 30 mins by time kill assay; assay type: functional, organism-based
[31] = system: Staphylococcus aureus; assay: Antibacterial activity methicillin-resistant Staphylococcus aureus 003 assessed as ROS accumulation at 2 to 8 times MIC incubated for 60 mins; assay type: functional, organism-based
[32] = system: Staphylococcus aureus; assay: Bactericidal activity against methicilin-resistant Staphylococcus aureus 003 at 2 to 4 times MIC measured after 24 hrs by time kill assay; assay type: functional, organism-based
[33] = system: Staphylococcus aureus; assay: Antibacterial activity methicillin-resistant Staphylococcus aureus 003 assessed as increase in fluorescence intensity by DiSC3(5) dye based analysis; assay type: functional, organism-based
[34] = system: Staphylococcus aureus; assay: Antibacterial activity methicillin-resistant Staphylococcus aureus 003 assessed as increase in fluorescence intensity at 4 time MIC; assay type: functional
[35] = system: Staphylococcus aureus; assay: In vivo antibacterial activity against methicilin-resistant Staphylococcus aureus infected in ICR mouse skin infection model assessed as reduction in bacterial burden at 20 mg/kg, ip preadministered with compound for 24 hrs followed by bacterial infection and measured after 3 days; assay type: functional; set-up: scale not given: the % may be the effect or the level left; conditions: time 96 hrs
[36] = system: Staphylococcus aureus; assay: Antibacterial activity methicillin-resistant Staphylococcus aureus 003 assessed as downregulation of fabH expression by qRT-PCR analysis; assay type: functional, organism-based
[37] = system: Staphylococcus aureus; assay: Antibacterial activity methicillin-resistant Staphylococcus aureus 003 assessed as downregulation of fabZ expression by qRT-PCR analysis; assay type: functional, organism-based
[38] = system: Staphylococcus aureus; assay: Antibacterial activity methicillin-resistant Staphylococcus aureus 003 assessed as increase in intracellular ATP level incubated for 30 mins; assay type: functional, organism-based
[39] = system: Enterococcus; assay: Antibacterial activity vancomycin-resistant Enterococcus under […] condition at pH 5.5 to 9.5; assay type: functional, organism-based
[40] = system: Cell membrane; assay: Disruption of bacterial cell membrane in vancomycin-resistant Enterococcus assessed as as appearance of wrinkled cell incubated for 1 hr by DAPI/PI staning based confocal laser microscopic analysis
[41] = system: Staphylococcus aureus; assay: Antibacterial activity methicillin-resistant Staphylococcus aureus 003 assessed as downregulation of fabD expression by qRT-PCR analysis; assay type: functional, organism-based
[42] = system: Escherichia coli; assay: Antibacterial activity Escherichia coli assessed as inhibition of bacterial growth incubated for 24 hrs by CLSI based analysis; assay type: functional
[43] = system: Staphylococcus aureus; assay: Antibacterial activity methicillin-resistant Staphylococcus aureus 003 assessed as inhibition of H2S production at 1/4 to 1/8 times MIC; assay type: functional, organism-based
[44] = system: Staphylococcus aureus; assay: Induction of resistance development in methicilin-resistant Staphylococcus aureus 003 incubated for 24 hrs treated over 11 serial passages by broth microdilution analysis; assay type: functional, organism-based
[45] = system: Enterococcus; assay: Antibacterial activity vancomycin-resistant Enterococcus assessed as decrease in intracellular pH at 4 time MIC measured up to 74 mins; assay type: functional, organism-based
[46] = system: Staphylococcus aureus; assay: Antibacterial activity methicillin-resistant Staphylococcus aureus 003 assessed as decrease in membrane fluidity incubated for 50 mins; assay type: functional, organism-based
[47] = system: Staphylococcus aureus; assay: Bactericidal activity Staphylococcus aureus assessed as inhibition of bacterial growth incubated for 24 hrs by CLSI based analysis; assay type: functional
[48] = system: Staphylococcus aureus; assay: Induction of resistance development Staphylococcus aureus incubated for 24 hrs treated over 11 serial passages by broth microdilution analysis; assay type: functional, organism-based
[49] = system: Enterococcus; assay: Bactericidal activity vancomycin-resistant Enterococcus assessed as inhibition of bacterial growth incubated for 24 hrs by CLSI based analysis; assay type: functional
[50] = system: Cell membrane; assay: Induction of inner membrane permeability in methicillin-resistant Staphylococcus aureus 003 assessed as increase in fluorescence intensity incubated for 30 mins
[51] = system: Staphylococcus aureus; assay: Antibacterial activity methicillin-resistant Staphylococcus aureus 003 assessed as downregulation of fabG expression by qRT-PCR analysis; assay type: functional, organism-based
[52] = system: Staphylococcus aureus; assay: Antibacterial activity methicillin-resistant Staphylococcus aureus 003 under […] condition at pH 5.5 to 9.5; assay type: functional, organism-based
[53] = system: Staphylococcus aureus; assay: Antibacterial activity methicillin-resistant Staphylococcus aureus 003 assessed as inhibition of H2S production at 50 uM; assay type: functional
[54] = system: Staphylococcus aureus; assay: Bactericidal activity against Staphylococcus aureus at 4 times MIC measured after 24 hrs by time kill assay; assay type: functional, organism-based
[55] = system: Cell membrane; assay: Disruption of bacterial cell membrane in methicilin-resistant Staphylococcus aureus 003 assessed as increase in red fluorescence intensity incubated for 1 hr by DAPI/PI staning based confocal laser microscopic analysis
[56] = system: Staphylococcus aureus; assay: Bactericidal activity against methicilin-resistant Staphylococcus aureus 003 at 4 times MIC measured after 24 hrs by time kill assay; assay type: functional, organism-based

C[C@@H](O)[C@H]1C(=O)N2C(C(=O)O)=C(S[C@@H]3CN[C@H](C(=O)N(C)C)C3)[C@H](C)[C@H]12 [MEROPENEM]
MIC [1]: 8 µg/mL (≈ 20.9 µM) | MIC [2]: > 128 µg/mL | MIC [3]: 2 µg/mL (≈ 5.22 µM) | Activity [4]: Active | MIC [5]: > 128 µg/mL

CC(C)=CCc1c(-c2ccc(O)cc2O)oc2c3c(cc(O)c2c1=O)OC(C)(C)C=C3 [MORUSIN]
fold change (FC) [6]: 8 | MIC [1]: 8 µg/mL (≈ 19 µM) | Activity [7]: Active | MBC [8]: 16 µg/mL (≈ 38.1 µM) | Activity [9]: 50% | Activity [10]: Active | Flu intensity [11]: 0.9 | Activity [12]: 0.16 cm2 | Activity [13]: inactive | Activity [14]: Dose-Dependent Effect | fold change (FC) [15]: 32 | Activity [16]: inactive | Activity [17]: Active | Activity [18]: Active | Activity [19]: 0.3 cm2 | Activity [20]: Active | Flu intensity [21]: 334 | MBC [22]: 16 µg/mL (≈ 38.1 µM) | Activity [23]: 0.1 cm2 | inhibition (INH) [24]: 12% | fold change (FC) [25]: 8 | MIC [2]: 4 µg/mL (≈ 9.51 µM) | Activity [26]: 80% | Activity [27]: Active | MIC [28]: > 512 µg/mL | Activity [29]: inactive | Activity [30]: Active | Activity [31]: Active | Activity [32]: Active | Activity [33]: Dose-Dependent Effect | Flu intensity [34]: 354 | Activity [35]: 90% | Activity [36]: Active | Activity [37]: Active | Activity [38]: Dose-Dependent Effect | MIC [3]: 4 µg/mL (≈ 9.51 µM) | Activity [39]: Active | Activity [40]: Active | Activity [41]: Active | MIC [42]: > 512 µg/mL | MIC [5]: 8 µg/mL (≈ 19 µM) | inhibition [43]: Active | Activity [44]: Active | Activity [45]: Active | Activity [46]: Dose-Dependent Effect | MBC [47]: 8 µg/mL (≈ 19 µM) | Activity [48]: Active | MBC [49]: 16 µg/mL (≈ 38.1 µM) | Activity [50]: Dose-Dependent Effect | Activity [51]: Active | Activity [52]: Active

CCc1ccc(CCOc2ccc(CC3SC(=O)NC3=O)cc2)nc1 (configuration not stated) [PIOGLITAZONE]
inhibition at 50 µM [53]: 54%

CN[C@H](CC(C)C)C(=O)N[C@H]1C(=O)N[C@@H](CC(N)=O)C(=O)N[C@H]2C(=O)N[C@H]3C(=O)N[C@H](C(=O)N[C@H](C(=O)O)c4cc(O)cc(O)c4-c4cc3ccc4O)[C@H](O)c3ccc(c(Cl)c3)Oc3cc2cc(c3O[C@@H]2O[C@H](CO)[C@@H](O)[C@H](O)[C@H]2O[C@H]2C[C@](C)(N)[C@H](O)[C@H](C)O2)Oc2ccc(cc2Cl)[C@H]1O [VANCOMYCIN]
MIC [1]: 64 µg/mL (≈ 44.2 µM) | Activity [54]: inactive | Activity [19]: 0.16 cm2 | Activity [55]: Active | Activity [56]: inactive
